These results are taken from patent US5935966A, “Pyrimidine carboxylates and related compounds and methods for treating inflammatory conditions” (Signal Pharmaceuticals, Inc., priority 1996, dated 1999).

Structures are written as SMILES.

The subject of the first experiment is delayed-type hypersensitivity response to oxazolone.
Assay: not given
The settings on record: Morris et al. 1990; cited from earlier work.
As for `O=P1(N(CCCl)CCCl)NCCCO1` (stereo not drawn) [cyclophosphamide], the “activity in delayed-type hypersensitivity (oxazolone) model” value is “active”.

A further experiment concerns NFκB and AP-1. Briefly: NFκB and AP-1 luciferase reporter assays in stable Jurkat T-cells (PMA/PHA stimulated). Type of experiment: cell-based, human. The settings on record: Homo sapiens, average of NFκB and AP-1 assays, read-out: ICm (average of the measurements obtained from the NFκB and AP-1 assays). An excerpt:
Stable human Jurkat T-cells containing an NFκB binding site (from the MHC promoter) fused to a minimal SV-40 promoter driving luciferase expression were used in this experiment. Cells were split to 3×10^5 cells/mL every 2-3 days (cell concentration should not exceed 1×10^6 cells/mL to keep the cells proliferating in log phase). These cells were counted, resuspended in fresh medium containing 10% Serum-Plus at a density of 1×10^6 cells/mL and plated in 96 well round bottom plates (200 μ.LAMBDA. per well) 18 hours prior to starting the experiment.
Compounds of this invention, dissolved in dimethyl sulfoxide (3.3, 0.33 and 0.03 μg/mL), were then added to the 96 well plates containing the cells and the plates were incubated for 0.5 h at 37° C. Then 50 ng/mL of phorbol 12-myristate-13-acetate (PMA) and 1 μg/mL of phytohemagglutinin (PHA) were added to each well and the cells were incubated for an additional 5 h at 37° C. The plates were centrifuged at 2200 RPM for 3 minutes at room temperature and then the medium was removed. To each well was added 60 μL of cell lysis buffer and the plates were left at room temperature for 0.25 h. Then 40 μL of each cell extract was transferred to a black 96 well plate and 50 μL of luciferase substrate buffer was added. Luminescence was immediately measured using a Packard TopCount.
For AP-1, the assay was run as described above for NFκB except stable Jurkat T-cells were used that contained a collagenase promoter driving luciferase expression. In addition, the concentration of PMA used was 5 ng/mL.
The IC50 values reported in Table 3 are the average of the measurements obtained from the NFκB and AP-1 assays described above.
Turning to `CCCC(=O)c1cnc(N(C)N2C(=O)C=C(C)C2=O)nc1CC` [Example 107, 5-BUTANOYL 2-[N-(1'-AMINOCITRACONAMIDO-N-METHYL)]-4-ETHYLPYRIMIDINE], the IC50 worked out at 500 nM.

For `CCOC(=O)c1cnc(NN2C(=O)C=C(C)C2=O)nc1C1CC1` [Example 108, ETHYL 2-[N-(1'-AMINOCITRACONAMIDO)]-4-CYCLOPROPYLPYRIMIDINE-5-CARBOXYLATE], the IC50 turned out to be 1500 nM.

On to `CCOC(=O)c1cnc(N(C)N2C(=O)C=C(C)C2=O)nc1C1CC1` [Example 109, ETHYL 2-[N-(1'-AMINOCITRACONAMIDO-N-METHYL)]-4-CYCLOPROPYLPYRIMIDINE-5-CARBOXYLATE], for which the IC50 is 200 nM.

Turning to `CCc1nc(N(C)N2C(=O)C=C(C)C2=O)ncc1CO` [Example 111, 2-[N-(1'-AMINOCITRACONAMIDO)-N-METHYL]-4-ETHYL-5-(HYDROXYMETHYL)PYRIMIDINE], the IC50 was found to be 4900 nM.

For `CCc1nc(N(C)N2C(=O)C=C(C)C2=O)ncc1COC` [Example 112, 2-[N-(1'-AMINOCITRACONAMIDO)-N-METHYL]-4-ETHYL-5-(METHOXYMETHYL)PYRIMIDINE], the IC50 came to 600 nM.

Regarding `COCc1cnc(NN2C(=O)C=C(C)C2=O)nc1C(F)(F)F` [Example 113, 2-[N-(1'-AMINOCITRACONAMIDO)]-5-(METHOXYMETHYL)-4-TRIFLUOROMETHYLPYRIMIDINE], the IC50 came out at 1000 nM.

For the molecule `CCOC(=O)OCc1cnc(NN2C(=O)C=C(C)C2=O)nc1C(F)(F)F` [Example 114, 2-[N-(1'-AMINOCITRACONAMIDO)]-5-(ETHOXYMETHYLCARBONATE)-4-TRIFLUOROMETHYLPYRIMIDINE], the IC50 came to 1100 nM.

As to `CCOC(=O)c1cnc(-c2ccccc2)nc1NN1C(=O)C=C(C)C1=O` [Example 115], the IC50 is 30 nM.

For the molecule `CCOC(=O)c1cnc(-c2ccccc2)nc1N(C)N1C(=O)C=C(C)C1=O` [Example 116, ETHYL-4-[N-(1'-AMINOCITRACONAMIDO)-N-METHYL]-2-PHENYLPYRIMIDINE-5-CARBOXYLATE], the IC50 came to 1400 nM.

As for `CCOC(=O)c1cnc(-c2ccccc2)nc1N(C(C)=O)N1C(=O)C=C(C)C1=O` [Example 117, ETHYL 4-[N-ACETYL-N-(1'-AMINOCITRACONAMIDO)]-2-PHENYLPYRIMIDINE-5-CARBOXYLATE], the IC50 worked out at 4000 nM.

Turning to `CCOC(=O)c1cnc(C)nc1NN1C(=O)C=C(C)C1=O` [Example 118, ETHYL 4-[N-(1'-AMINOCITRACONAMIDO)]-2-METHYLPYRIMIDINE-5-CARBOXYLATE], the IC50 was 17000 nM.

`CCOC(=O)c1cnc(Cc2ccccc2)nc1NN1C(=O)C=C(C)C1=O` [Example 119, ETHYL 4-[N-(1'-AMINOCITRACONAMIDO)]-2-BENZYLPYRIMIDINE-5-CARBOXYLATE]: the IC50 stood at 7000 nM.

Consider `CCOC(=O)c1cnc(-c2cccc([N+](=O)[O-])c2)nc1NN1C(=O)C=C(C)C1=O` [Example 120, ETHYL 4-[N-(1'-AMINOCITRACONAMIDO)]-2-(3'-NITROPHENYL)-PYRIMIDINE-5-CARBOXYLATE], for which the IC50 is 8000 nM.

Take `CCOC(=O)c1cnc(-c2ccc(C(F)(F)F)cc2)nc1NN1C(=O)C=C(C)C1=O` [Example 121, ETHYL 4-[N-(1'-AMINOCITRACONAMIDO)]-2-(4'-TRIFLUOROMETHYLPHENYL)PYRIMIDINE-5-CARBOXYLATE]: the IC50 turned out to be 400 nM.

Regarding `CCOC(=O)c1cnc(-c2cccs2)nc1NN1C(=O)C=C(C)C1=O` [Example 122, ETHYL 4-[N-(1'-AMINOCITRACONAMIDO)]-2-(2'-THIENYL)-PYRIMIDINE-5-CARBOXYLATE], the IC50 was found to be 20 nM.

Regarding `CCOC(=O)c1cnc(-c2cccs2)nc1N(C)N1C(=O)C=C(C)C1=O` [Example 123, ETHYL 4-[N-(1'-AMINOCITRACONAMIDO)-N-METHYL]-2-(2'-THIENYL)-PYRIMIDINE-5-CARBOXYLATE], the IC50 was 800 nM.

With `CCOC(=O)c1cnc(Cc2ccc(Cl)c(Cl)c2)nc1NN1C(=O)C=C(C)C1=O` [Example 124, ETHYL 4-[N-(1'-AMINOCITRACONAMIDO)]-2-(3',4'-DICHLOROBENZYL)-PYRIMIDINE-5-CARBOXYLATE], the IC50 was found to be 4000 nM.

Turning to `CCc1nc(N(C)N2C(=O)C=C(C)C2=O)ncc1-c1nc(C)co1` [Example 126, 2-[N-(1'-AMINOCITRACONAMIDO)-N-METHYL]-4-ETHYL-5-[2"-(4"-METHYL)OXAZOLYL]PYRIMIDINE], the IC50 came out at 1000 nM.

For the molecule `CC1=CC(=O)N(N(C)c2ncc(-c3nc(C)co3)c(-c3cccs3)n2)C1=O` [Example 127, 2-[N-(1'-AMINOCITRACONAMIDO)-N-METHYL]-5-[2"-(4"-METHYL)OXAZOLYL]-4-(2'"-THIENYL)PYRIMIDINE], the IC50 stood at 750 nM.

`CCc1nc(N(C)N2C(=O)C=C(C)C2=O)ncc1-c1noc(C)n1` [Example 129, 2-[N-(1'-AMINOCITRACONAMIDO)-N-METHYL]-4-ETHYL-5-[5"-METHYL-1",2",4"-OXADIAZOLYL]PYRIMIDINE]: the IC50 was 1420 nM.

With `CC1=CC(=O)N(Nc2nc(-c3cccs3)ncc2-c2cc(C)no2)C1=O` [Example 132, 4-[N-(1'-AMINOCITRACONAMIDO)]-5-(3"-METHYLISOXAZOL-5'-YL)-2-(2'"-THIENYL)PYRIMIDINE], the IC50 worked out at 190 nM.

Turning to `CC1=CC(=O)N(Nc2nc(-c3cccs3)ncc2-c2nc(C)co2)C1=O` [Example 137, 4-[N-(1'-AMINOCITRACONAMIDO)]-5-(4"-METHYLOXAZOL-2-YL)-2-(2'"-THIENYL)PYRIMIDINE], the IC50 was 310 nM.

Take `CC1=CC(=O)N(Nc2nc(-c3cccs3)ncc2C2=NCCO2)C1=O` [Example 140, 4-[N-(1'-AMINOCIACONAMIDO)]-5-(4",5"-DIHYDRO-2"-OXAZOLYL)-2-(2'"-THIENYL)PYRIMIDINE]: the IC50 was found to be 200 nM.

With `CC1=CC(=O)N(Nc2nc(-c3cccs3)ncc2-c2nnc(C)o2)C1=O` [Example 142, 4-[N-(1'-AMINOCITRACONAMIDO)]-5-(5"-METHYL-1",3",4"-OXADIAZOL-2"-YL)-2-(2'"-THIENYL)PYRIMIDINE], the IC50 stood at 250 nM.

Regarding `CC1=CC(=O)N(Nc2nc(-c3cccs3)ncc2C#N)C1=O` [Example 143, 4-[N-(1'-AMINOCITRACONAMIDO)]-5-CYANO-2-(2'-THIENYL)PYRIMIDINE], the IC50 turned out to be 5150 nM.

A further experiment has as its system popliteal lymph node (graft vs. host).
Assay: not given
The settings on record: Morris et al. 1990; cited from earlier work.
Turning to `O=P1(N(CCCl)CCCl)NCCCO1` (stereo not drawn) [cyclophosphamide], the “activity in popliteal lymph node (graft vs. host) model” value is given as “active”.
